Results reported in US20250236607A1, “CYCLIN-DEPENDENT KINASE 9 (CDK9) DEGRADERS AND METHODS OF USING THEREOF” (OHIO STATE INNOVATION FOUNDATION, priority 2022, published 2025).
Values after ≈ are worked out from the molar mass of the structure shown. Values joined by “and” are separate entries in the source; they are usually repeats but may differ in a detail not shown here. Equal values may be shown once. Read-outs that look alike come from different tables or passages of the source.

How the values were obtained:
MV411 cells [1] = experiment: MTS cytotoxicity assay against MV411 cells; type: cell-based
Experimental: (§1) The obtained compounds were tested in biological experiments to measure their potency in inhibiting the growth of AML cells and in their degradation of CDK9. These measurements are reported as half-maximum growth inhibitory and half-maximum degradation concentrations, IC50s and DC50s, respectively. Maximum percent degradation (Dmax) values were also obtained during the CDK9 degradation assessments. The common MTS assay was used to acquire the IC50 values, while the DC50 values were obtained using an automated western blot experiment. These values are presented in Table 2, along with pIC50 (log(nM IC50)) to more accurately reflect the differences/lack thereof in in vitro cytotoxicity. The notation “N:N*” represents the number of linker atoms on each side of the rigid triazole ring for a given degrader. Predicted log D values, calculated using the ChemAxon […], are also provided for each degrader. To characterize the physicochemical properties of the new degrader series, two additional assays were performed: a kinetic aqueous solubility assay and the chromatographic log D experiment described earlier. Aqueous solubility is shown in μM while experimentally determined log D is shown as log k′80. Details regarding the execution of each experiment are provided below.

[2] = Chromatographic log D determination (log k′80); type: physicochemical; settings: for logk′80: chromatographic log D, PLRP-S column, pH 7.72
How it was run: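 Samples were diluted from DMSO stock to 122 μM in acetonitrile and run on a PLRP-S column in 20:80 aqueous ammonium acetate/acetonitrile, pH 7.72, at 1 mL/min with UV detection at 337 nm. log k′80 used a fixed 0.3 min dead time derived from a five-compound standard set. Runs were done in triplicate.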

Kinetic solubility assay = settings: kinetic solubility, PBS pH 7.4; for solubility at 1.5 h: phosphate buffered saline, pH 7.4, aqueous buffer, kinetic from dmso stock, Solubility (μM)
Experimental: (§2) Kinetic Solubility Assay. Kinetic solubility (KS) was measured according to Millipore protocol PC2445 EN00. Test compounds were weighed and diluted with DMSO to 10 mM. From the stock solutions as well as blank (100% DMSO) was taken 17.5 μL and diluted to 500 μM with 332.5 μL of 100 mM phosphate Buffered Saline (PPBS) at pH 7.4 in a 96-well quartz plate. From the 500 μM solutions was taken 150 μL and dispensed into a 96-well Millipore filter plate (Product number: MSSLBPC10). In the quartz plate, serial dilutions were performed down to 0.5 μM using the 100 mM PBS solution, leaving 100 μL of each test sample at 11 different concentrations, representing standards. These steps were performed in triplicate, at minimum, for each test compound. Both plates were shaken on an orbital shaker at 150 rpm for 1.5 hours. The contents of the filter plate were filtered and 100 μL of the filtrate from each well was dispensed into the quartz plate containing standards. The quartz plate was then analyzed using a UV plate reader where absorbance was measured at the relevant wavelength for each compound. After blank subtraction, for each test sample, solubility was determined based on the optical density of filtered samples and the equations derived from the corresponding linear standard curve.

MV411 cells [3] = experiment: Cellular potency in human serum versus fetal bovine serum, MV411; type: cell-based
From the text: FIGS. 3A-3C. In vitro cellular potency (against MV411 cells) in human serum (HS) versus fetal bovine serum (FBS) for compounds 4.7b (FIG. 3A) 4.9c (FIG. 3B), and 4,8a (FIG. 3C).
This contrasts with 4.8a, which loses its potency by almost 20-fold in human serum (FIG. 3C).

CDK9 [4] = target: T1, CDK9 (Homo sapiens, UniProt P50750+Q96SW2); experiment: CDK9 degradation, automated western blot, triazole-containing AT7519 degraders (MV411); type: cell-based; settings: for DC50: CDK9 degradation, MV411 cells; for Dmax: MV4-11; for Dmax / Dmax (%): maximum percent CDK9 degradation
T1 construct: endogenous in cells
Experimental: as §1

[5] = pH 7.4
Experimental: as §2

AML cells = experiment: Drug washout experiment (cytotoxicity); type: cell-based; settings: 6 h drugging, 48 h total
Experimental: To better evaluate the catalytic mechanism of action of this degrader series, a drug washout (WO) experiment was performed. This experiment involved the drugging of cells for six hours after which the cell media was replaced with a drug-free batch.

MOLM13 cells [6] = experiment: Cytotoxicity against MOLM13 cells; type: cell-based; settings: MOLM13 cells, read-out: IC50
MOLM13 cells [7] = experiment: Protein shift experiment, cytotoxicity in FBS vs human serum, MOLM13; type: cell-based
From the text: In order to determine the suitability of the lead compounds for advanced biological studies, the four degraders (4.49, 4.62, 4.72 and 4.78) were selected for a protein-shift analysis due to their higher potency and solubility.

CDK9 [8] = target: T1, CDK9; experiment: CDK9 degradation potency (DC50) of VIP152-based degraders; type: cell-based; settings: VIP152-based series
[9] = Homo sapiens, MV4-11, defined as log(nM IC50), MV411, read-out: pIC50 (converted)
[10] = Homo sapiens, MV4-11, growth inhibition, MV411 cells, MTS, read-out: IC50
[11] = growth inhibition, MV411 cells, MTS, read-out: IC50
[12] = Homo sapiens, MOLM-13, cytotoxicity
[13] = Homo sapiens, MOLM-13, MOLM13, fetal bovine serum, read-out: IC50 (μM) FBS
[14] = MOLM-13, MOLM13, human serum, read-out: IC50 (μM) HS

T1 sequence (P50750 whole entry): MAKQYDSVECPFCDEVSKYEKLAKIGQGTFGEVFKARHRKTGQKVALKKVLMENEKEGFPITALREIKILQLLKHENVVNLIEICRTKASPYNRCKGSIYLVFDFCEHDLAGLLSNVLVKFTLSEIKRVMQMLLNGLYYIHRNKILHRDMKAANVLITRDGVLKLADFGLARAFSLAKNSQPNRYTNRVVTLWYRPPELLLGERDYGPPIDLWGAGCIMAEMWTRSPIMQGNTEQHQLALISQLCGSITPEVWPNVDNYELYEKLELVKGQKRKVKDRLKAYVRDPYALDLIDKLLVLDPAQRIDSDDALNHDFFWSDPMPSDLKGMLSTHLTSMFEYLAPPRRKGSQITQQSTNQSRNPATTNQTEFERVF
T1 sequence (O60563 whole entry partner): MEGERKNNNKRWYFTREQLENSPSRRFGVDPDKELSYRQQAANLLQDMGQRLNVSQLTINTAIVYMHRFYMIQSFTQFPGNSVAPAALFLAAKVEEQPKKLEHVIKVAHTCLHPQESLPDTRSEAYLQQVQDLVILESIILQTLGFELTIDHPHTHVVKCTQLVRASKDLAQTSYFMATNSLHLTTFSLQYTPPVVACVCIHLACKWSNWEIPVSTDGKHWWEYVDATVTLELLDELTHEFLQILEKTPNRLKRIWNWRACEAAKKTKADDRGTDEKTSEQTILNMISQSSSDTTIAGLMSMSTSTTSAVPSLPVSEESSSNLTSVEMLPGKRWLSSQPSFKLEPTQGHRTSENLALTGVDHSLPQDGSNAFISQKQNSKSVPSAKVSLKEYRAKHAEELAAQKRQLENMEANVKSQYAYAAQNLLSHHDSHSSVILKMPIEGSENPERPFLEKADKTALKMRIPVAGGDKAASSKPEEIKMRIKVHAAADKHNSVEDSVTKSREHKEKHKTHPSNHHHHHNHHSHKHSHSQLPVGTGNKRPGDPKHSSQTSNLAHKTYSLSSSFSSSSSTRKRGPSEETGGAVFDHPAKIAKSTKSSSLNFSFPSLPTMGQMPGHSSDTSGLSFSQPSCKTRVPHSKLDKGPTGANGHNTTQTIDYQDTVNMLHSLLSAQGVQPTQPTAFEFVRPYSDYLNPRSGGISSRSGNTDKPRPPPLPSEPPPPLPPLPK
T1 sequence (Q96SW2 whole entry): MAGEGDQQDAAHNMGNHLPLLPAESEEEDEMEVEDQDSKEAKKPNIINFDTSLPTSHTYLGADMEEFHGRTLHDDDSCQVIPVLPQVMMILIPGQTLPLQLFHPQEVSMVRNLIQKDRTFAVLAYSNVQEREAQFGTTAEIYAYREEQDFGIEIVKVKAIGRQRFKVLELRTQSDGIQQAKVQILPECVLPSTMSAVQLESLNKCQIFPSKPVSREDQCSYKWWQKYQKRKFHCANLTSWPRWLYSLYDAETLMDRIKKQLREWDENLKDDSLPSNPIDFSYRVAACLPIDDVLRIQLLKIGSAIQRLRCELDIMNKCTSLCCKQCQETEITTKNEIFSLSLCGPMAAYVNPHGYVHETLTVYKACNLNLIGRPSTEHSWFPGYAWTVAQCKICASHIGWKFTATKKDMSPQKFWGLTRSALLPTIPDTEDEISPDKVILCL
T1 sequence (Q16531 whole entry partner): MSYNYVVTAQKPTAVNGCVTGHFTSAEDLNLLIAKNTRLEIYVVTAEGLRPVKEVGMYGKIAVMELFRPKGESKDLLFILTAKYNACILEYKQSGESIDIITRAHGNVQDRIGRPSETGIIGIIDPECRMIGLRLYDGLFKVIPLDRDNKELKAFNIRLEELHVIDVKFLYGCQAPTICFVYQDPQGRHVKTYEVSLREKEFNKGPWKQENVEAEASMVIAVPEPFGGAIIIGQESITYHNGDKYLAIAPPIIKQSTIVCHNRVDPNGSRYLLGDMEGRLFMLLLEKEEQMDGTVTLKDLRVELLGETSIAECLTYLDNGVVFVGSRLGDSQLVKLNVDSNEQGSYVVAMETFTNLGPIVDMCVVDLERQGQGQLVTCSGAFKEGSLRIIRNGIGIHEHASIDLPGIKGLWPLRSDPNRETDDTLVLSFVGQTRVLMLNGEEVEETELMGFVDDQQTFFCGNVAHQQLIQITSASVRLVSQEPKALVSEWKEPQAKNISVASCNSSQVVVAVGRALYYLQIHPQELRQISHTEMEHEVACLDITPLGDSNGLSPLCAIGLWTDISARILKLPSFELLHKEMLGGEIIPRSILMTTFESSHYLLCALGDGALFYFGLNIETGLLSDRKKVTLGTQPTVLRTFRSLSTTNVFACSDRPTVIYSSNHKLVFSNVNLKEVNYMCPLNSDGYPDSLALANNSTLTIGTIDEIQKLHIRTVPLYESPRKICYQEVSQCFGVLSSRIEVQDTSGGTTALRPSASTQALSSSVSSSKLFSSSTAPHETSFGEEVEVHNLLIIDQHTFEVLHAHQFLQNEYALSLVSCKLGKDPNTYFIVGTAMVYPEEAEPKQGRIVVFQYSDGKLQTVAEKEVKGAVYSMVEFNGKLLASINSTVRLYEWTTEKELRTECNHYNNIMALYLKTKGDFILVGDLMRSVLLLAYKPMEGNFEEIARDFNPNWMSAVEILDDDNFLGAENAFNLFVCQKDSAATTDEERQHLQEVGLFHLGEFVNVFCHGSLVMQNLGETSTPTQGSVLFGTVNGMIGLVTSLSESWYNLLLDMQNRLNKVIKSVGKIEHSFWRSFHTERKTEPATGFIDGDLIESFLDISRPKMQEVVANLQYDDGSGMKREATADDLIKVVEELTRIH

| Structure (SMILES) | IC50 (MV411 cells [1]; [9]) | IC50 (MV411 cells [1]; [10]) | logk′80 [2] | solubility at 1.5 h (Kinetic solubility assay) | DC50 (CDK9 [4]) | Dmax (CDK9 [4]) | pIC50 (MV411 cells [1]; defined as log(nM IC50), MV411) | IC50 (MV411 cells [1]; [11]) | Solubility [5] | retention of potency after drug washout (AML cells) | Dmax (%) (CDK9 [4]) | DC50 (CDK9 [8]) | other results |
| --- | --- | --- | --- | --- | --- | --- | --- | --- | --- | --- | --- | --- | --- |
| O=C1CCC(N2C(=O)c3cccc(OCCCCCCCn4cc(CCN5CCC(NC(=O)c6n[nH]cc6NC(=O)c6c(Cl)cccc6Cl)CC5)nn4)c3C2=O)C(=O)N1 (stereo not drawn) [Compound 4.8a, 4-(2,6-dichlorobenzamido)-N-(1-(2-(1-(7-((2-(2,6-dioxopiperidin-3-yl)-1,3-dioxoisoindolin-4-yl)oxy)heptyl)-1H-1,2,3-triazol-4-yl)ethyl)piperidin-4-yl)-1H-pyrazole-3-carboxamide] | 50.1 nM | 46.9 nM | 0.146 | 5.65 µM (≈ 4.79 µg/mL) | 60.1 nM | 88.3% | – | – | – | – | – | – | minimum difference in log k′80 to constitutional isomers [2]: 0.030; loss of potency in human serum versus FBS (MV411 cells [3]): ~20 fold |
| O=C1CCC(N2C(=O)c3cccc(OCCCCCCn4cc(CCCCCCCN5CCC(NC(=O)c6n[nH]cc6NC(=O)c6c(Cl)cccc6Cl)CC5)nn4)c3C2=O)C(=O)N1 (stereo not drawn) [Compound 4.9b] | – | – | 0.176 | – | 61.4 nM | – | 1.8 | 63.3 nM | 4.70 µM (≈ 4.25 µg/mL) | retain their potency | 78.0% | – | – |
| O=C1CCC(N2C(=O)c3cccc(OCCCCCCn4cc(CCCCCN5CCC(NC(=O)c6n[nH]cc6NC(=O)c6c(Cl)cccc6Cl)CC5)nn4)c3C2=O)C(=O)N1 (stereo not drawn) [Compound 4.10, 4-(2,6-dichlorobenzamido)-N-(1-(5-(1-(6-((2-(2,6-dioxopiperidin-3-yl)-1,3-dioxoisoindolin-4-yl)oxy)hexyl)-1H-1,2,3-triazol-4-yl)pentyl)piperidin-4-yl)-1H-pyrazole-3-carboxamide] | 50.1 nM | 46.6 nM | 0.140 | 5.46 µM (≈ 4.78 µg/mL) | 99.9 nM | 70.1% | – | – | – | retain their potency | – | – | improvement in cytotoxicity over 4.3 (MV411 cells [1]; 4.10 versus 4.3): over 5 fold |
| O=C1CCC(N2C(=O)c3cccc(OCCCCn4cc(CCCCCN5CCC(NC(=O)c6n[nH]cc6NC(=O)c6c(Cl)cccc6Cl)CC5)nn4)c3C2=O)C(=O)N1 (stereo not drawn) [Compound 4.8b, 4-(2,6-dichlorobenzamido)-N-(1-(5-(1-(4-((2-(2,6-dioxopiperidin-3-yl)-1,3-dioxoisoindolin-4-yl)oxy)butyl)-1H-1,2,3-triazol-4-yl)pentyl)piperidin-4-yl)-1H-pyrazole-3-carboxanmide] | – | – | 0.112 | – | 951 nM | – | 2.1 | 130 nM | 13.2 µM (≈ 11.2 µg/mL) | – | 68.5% | – | – |
| COc1cc(F)ccc1-c1cc(Nc2cc(CS(C)(=O)=NC(=O)C3CCCN(Cc4cn(C5CN(C(=O)CNc6cccc7c6C(=O)N(C6CCC(=O)NC6=O)C7=O)C5)nn4)C3)ccn2)ncc1F (stereo not drawn) [Compound 4.62] | – | – | 0.11 | – | – | – | – | – | – | – | – | 150 nM | IC50 (MOLM13 cells [6]; cytotoxicity): 360 nM; IC50 (MOLM13 cells [7]; MOLM13, fetal bovine serum, read-out: IC50 (μM) FBS): 0.49 µM; IC50 (MOLM13 cells [7]; MOLM13, human serum, read-out: IC50 (μM) HS): 1.34 µM; Solubility (Kinetic solubility assay): 13.8 µM (≈ 13.3 µg/mL) |
| O=C1CCC(N2C(=O)c3cccc(OCCCn4cc(CCCCCCCCCCN5CCC(NC(=O)c6n[nH]cc6NC(=O)c6c(Cl)cccc6Cl)CC5)nn4)c3C2=O)C(=O)N1 (stereo not drawn) [Compound 4.9c, 4-(2,6-dichlorobenzamido)-N-(1-(10-(1-(3-((2-(2,6-dioxopiperidin-3-yl)-1,3-dioxoisoindolin-4-yl)oxy)propyl)-1H-1,2,3-triazol-4-yl)decyl)piperidin-4-yl)-1H-pyrazole-3-carboxamide] | 7.94 nM | 8.8 nM | 0.197 | 3.42 µM (≈ 3.09 µg/mL) | 44.8 nM | 88.6% | – | – | – | retain their potency | – | – | improvement in cytotoxicity over constitutional isomers (MV411 cells [1]; within isomer set): ~10 fold; minimum difference in log k′80 to constitutional isomers [2]: 0.013; loss of potency in human serum versus FBS (MV411 cells [3]): 3 fold |
| O=C1CCC(N2C(=O)c3cccc(OCCCCn4cc(CCCCN5CCC(NC(=O)c6n[nH]cc6NC(=O)c6c(Cl)cccc6Cl)CC5)nn4)c3C2=O)C(=O)N1 (stereo not drawn) [Compound 4.7a, 4-(2,6-dichlorobenzamido)-N-(1-(4-(1-(4-((2-(2,6-dioxopiperidin-3-yl)-1,3-dioxoisoindolin-4-yl)oxy)buty)-1H-1,2,3-triazol-4-yl)butyl)piperidin-4-yl)-1H-pyrazole-3-carboxamide] | – | – | 0.100 | – | 130 nM | – | 2.4 | 241 nM | 12.4 µM (≈ 10.3 µg/mL) | – | 67.5% | – | – |
| O=C1CCC(N2C(=O)c3cccc(OCCCn4cc(CCCCCN5CCC(NC(=O)c6n[nH]cc6NC(=O)c6c(Cl)cccc6Cl)CC5)nn4)c3C2=O)C(=O)N1 (stereo not drawn) [Compound 4.7c, 4-(2,6-dichlorobenzamido)-N-(1-(5-(1-(3-((2-(2,6-dioxopiperidin-3-yl)-1,3-dioxoisoindolin-4-yl)oxy)propyl)-11H-1,2,3-triazol-4-yl)pentyl)piperidin-4-yl)-1H-pyrazole-3-carboxamide] | – | – | 0.106 | – | 404 nM | – | 2.3 | 194 nM | 31.3 µM (≈ 26.1 µg/mL) | – | 58.6% | – | – |
| COc1cc(F)ccc1-c1cc(Nc2cc(CS(C)(=O)=NC(=O)CN3CCC(CN4CCC(COc5cccc6c5C(=O)N(C5CCC(=O)NC5=O)C6=O)CC4)CC3)ccn2)ncc1F (stereo not drawn) [Compound 4.78, 2-(4-{[4-({[2-(2,6-dioxopiperidin-3-yl)-1,3-dioxo-2,3-dihydro-1H-isoindol-4-yl]-oxy}methyl)piperidin-1-yl]methyl}piperidin-1-yl)-N-{[(2-{[5-fluoro-4-(4-fluoro-2-methoxyphenyl)pyridin-2-yl]amino}pyridin-4-yl)methyl](methyl)oxo-λ^6-sulfanylidene}acetamide] | – | – | 0.18 | 28.9 µM (≈ 26.4 µg/mL) | – | – | – | – | – | – | – | 820 nM | IC50 (MOLM13 cells [6]; [12]): 410 nM; IC50 (MOLM13 cells [7]; [13]): 0.52 µM; IC50 (MOLM13 cells [7]; [14]): 0.49 µM |
| COc1cc(F)ccc1-c1cc(Nc2cc(CS(C)(=O)=NC(=O)CCc3cn(CCOCCOCCOc4cccc5c4C(=O)N(C4CCC(=O)NC4=O)C5=O)nn3)ccn2)ncc1F (stereo not drawn) [Compound 4.34, 3-(1-(2-(2-(2-((2-(2,6-dioxopiperidin-3-yl)-1,3-dioxoisoindolin-4-yl)oxy)ethoxy)ethoxy)ethyl)-1H-1,2,3-triazol-4-yl)-N-(((2-((5-fluoro-4-(4-fluoro-2-methoxyphenyl)pyridin-2-yl)amino)pyridin-4-yl)methyl)(methyl)(oxo)-16-sulfaneylidene)propenamide] | – | – | 0.13 and 0.16 | 5.2 µM (≈ 4.76 µg/mL) | – | – | – | – | – | – | – | 70 nM | IC50 (MOLM13 cells [6]; [12]): 60 nM; IC50 (MOLM13 cells [7]; [13]): 0.29 µM; IC50 (MOLM13 cells [7]; [14]): 1.52 µM |
